Reference: US20240252508A1, “Novel glucose uptake inhibitors for use in the treatment of cancer” (NOVELYEAST BV, priority 2021, published 2024)
“Also recorded” adds a separate entry of the source. Like-named read-outs stand apart in the source and are kept apart here.

Legend:
[1] = system: A549 lung adenocarcinoma cells; assay: A549 cell proliferation / growth inhibition; format: cell-based, human; conditions: 1 mM glucose; for Potency in reducing maximal growth rate of A549 cells: 6.25-50 μM
Outline: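 A549 growth screened in RPMI with 1 mM glucose, compounds at 50 μM; cell number from counts of Hoechst-stained nuclei after 3 days. Growth curves also followed by IncuCyte phase-contrast confluency over 3–5 days (1000–1500 cells/well), DMSO ≤0.1%, ≥4 technical repeats.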

[2] = system: A549 lung adenocarcinoma cells; assay: 2-deoxyglucose uptake in A549 cells; format: cell-based, human; conditions: for Type of inhibition of 2-deoxyglucose uptake in A549 cells: Lineweaver-Burk plot analysis
Method: Zero-trans glucose uptake in A549 cells was approximated by measuring the uptake of [1,2-^3H]2-deoxyglucose. For this purpose, A549 cells were pregrown in RPMI medium containing 10 mM glucose in a 24-well plate to a cell density of around 100,000 cells/well. Prior to adding radioactive label, cells were gently washed twice in Krebs-Ringer-HEPES buffer (50 mM HEPES pH 7.4, 137 mM NaCl, 4.7 mM KCl, […], 1.3 mM MgSO4 and 0.1% w/v BSA) at 30° C. to remove any residual sugar. RPMI medium without sugar containing the compound intended for treatment, was added to the cells for 15 min at 37° C. to allow adequate interaction of the cells with the compound.
The uptake measurement was initiated by adding an equal volume of medium containing radiolabeled 2DG. After 3-4 min, medium was aspirated and cells were gently washed three times with ice-cold Krebs-Ringer-HEPES buffer. Cells were lysed by adding 200 μL of ice-cold 0.1 M NaOH solution and incubating the plate for 10 min at 37° C. Cell lysates were transferred to scintillation vials for subsequent scintillation counting. For blank measurements, cells were incubated with 50 μM Cytochalasin B prior to the uptake measurement.

[3] = system: MCF10A breast epithelia cell line transformed with the H-RAS^V12 allele; assay: MCF10A H-RAS^V12 growth and apoptosis (IncuCyte); format: cell-based, human; conditions: 25 μM
Method: For both adherent A549 and MCF10Δ H-RAS^V12 cell lines, growth curves were established using the IncuCyte® ZOOM technology. By collecting phase contrast images, the IncuCyte® software provides a calculated confluency percentage from which growth curves can be deducted.
Cells were seeded at a density of 1000-1500 cells/well in a Nunc-Edge™ 96-well plate (Thermo Fisher Scientific) and growth was typically measured over 3 to 5 days. For the measurement of apoptosis induction using the MCF10Δ H-RAS^V12 cell line, the IncuCyte® Caspase-3/7 green dye was added to the medium in the recommended concentration at the beginning of the growth curve experiment. Apoptosis was detected by taking fluorescent images by excitation at 488 nm followed by IncuCyte® software analysis. Cell growth of the KMS-12-PE multiple myeloma cell line, which grows in suspension, was measured by manual cell counting. Cells were initially seeded at a density of 10^4 cells/well and incubated for 4 days after which the cell number was counted. For all cell lines, the same medium used for pregrowth was also used for the growth curve experiment, albeit with different glucose concentrations depending on the experimental design. With compound administration, the final concentration of DMSO never exceeded 0.1%. Typically, at least four technical repeats were included per condition.

[4] = system: U266 multiple myeloma cell line; assay: U266 proliferation (cell count); format: cell-based, human; conditions: 25 μM, 4 days, RPMI with 1 mM glucose
Method: a. Cell count of the U266 multiple myeloma cell line after 4 days of growth on RPMI medium with 1 mM glucose. Cells were treated with either DMSO or 25 μM of WBC-A, -15C, -4C or -11C. Glucose consumption (b.) or lactate secretion (c.) rates are shown for U266 cells incubated in RPMI medium supplemented with 1 mM glucose for 8 h.

[5] = system: A549 lung adenocarcinoma cells; assay: Steady-state glucose consumption and lactate production in A549 cells; format: cell-based, human; conditions: 25 μM, 1 mM glucose, 8 h
Method: (§1) The influence of WBC compounds on the steady-state glucose consumption rate was studied in the A549 adenocarcinoma and KMS-12-PE multiple myeloma cell lines. As such, different parameters needed to be optimized depending on whether cells were adherent or in suspension. As such, A549 cells were incubated at 125,000 cells/well in a 24-well plate in 300 μL RPMI medium for 8 h. For the KMS-12-PE cell line, 100,000 cells/well were incubated in 100 μL RPMI medium in a 96-well plate for 8 h. Medium was collected, spun down and HPLC-analyzed for measuring glucose and lactate levels. Metabolite levels were corrected for cell number, which always varied little over the span of 8 h. For every condition, at least 4 technical repeats were included.

[6] = system: KMS-12-PE multiple myeloma cells; assay: Steady-state glucose consumption and lactate production in KMS-12-PE cells; format: cell-based, human; conditions: 25 μM, 1 mM glucose, 8 h
Method: as §1

[7] = Warbicin toxicity and tolerability in mice; format: in vivo, NMRI-nu mice; conditions: for Loss in body weight over 20 days: daily i.p. 5, 10 and 20 mg/kg, nude mice; for AST/ALT ratio vs vehicle: sera after 20 days, 5, 10, 20 mg/kg i.p.; for Blood glucose level vs vehicle: sera post mortem after 20 days, 5, 10, 20 mg/kg i.p.
Method: Warbicin in vivo toxicity and tolerability was examined by subjecting NMRI-nu mice to daily intraperitoneal injection of either WBC-A, WBC-15C, WBC-4C or WBC-11C. Compounds were dosed at either 5 mg/kg, 10 mg/kg or 20 mg/kg over a period of 20 days. Three mice were used per condition. To evaluate toxicity, change in body weight was registered daily. As a humane endpoint, mice that lost more than 20% of their original body weight were prematurely sacrificed. An optimal dissolve strategy was developed to administer WBC compounds by intraperitoneal injection. Due to their considerable hydrophobicity, compounds were dissolved in a sterilized 1×PBS, 5% DMSO and 5% Tween-80 solution. For WBC-A, -15C and -4C, this gives an initial clear solution that gradually changes over time into a homogenous suspension which can still be administered in a reproducible way. For WBC-11C it immediately results in a homogenous suspension.

tps1Δ cells [8] = assay: Growth rescue of tps1Δ strain on glucose (growth curves, 2% galactose medium); format: cell-based, S. cerevisiae; conditions: 2.5 mM glucose
Outline: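 tps1Δ yeast pregrown in Complete Synthetic medium with 2% galactose, washed, resuspended to OD 0.1; compounds added 10 min before glucose. Growth followed as OD595 every 30 min at 30 °C in at least three technical replicates.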

tps1Δ cells [9] = assay: Zero-trans glucose uptake in tps1Δ yeast cells; format: cell-based, S. cerevisiae; conditions: 2.5 mM glucose, tps1Δ cells
Method: Zero-trans uptake of radioactively labeled [U-^14C]glucose, [U-^14C]fructose or [U-^14C]galactose by S. cerevisiae cells was determined in accordance with previous studies^44,66. Cells were grown on different carbon sources depending on the experiment. For measuring glucose uptake activity in the tps1Δ and tps1Δ hxtA strains (FIG. 1b,c), cells were grown on YP medium containing 3% glycerol (measurement of 10s). Typically, for compound characterization and kinetic studies in wild type and tps1Δ strains, cells were (pre)grown on Complete Synthetic medium supplemented with 2% galactose (measurement of 10s). In the experiments on the influence of hexokinase activity on the sugar uptake rate, the measurement duration was shortened to 5s and cells were always grown on YP medium containing 3% glycerol and 2% ethanol. After harvesting, cells were washed twice with ice-cold 25 mM MES-buffer pH 6, and resuspended in their respective medium without sugar to a final concentration of 45 mg (wet weight)/mL. The amount of added tracer was estimated to give a response close to at least 1000 counts per min in order to adequately counter background noise. Cells were first preincubated for 10 min at 30° C. with the compound to acclimate the cells to the temperature and to allow adequate interaction with the compound prior to uptake. Next, hexose sugar was mixed with the cell suspension, which was then incubated for 5 or 10 s, depending on the experiment, after which the cells were rapidly filtered over a glass microfiber filter (Whatman GF/C) and washed three times with ice-cold dH2O. The loaded filter was transferred to a scintillation vial containing 3 mL liquid scintillation cocktail (Ultima-Flo M, Perkin Elmer) and counted using the Hidex 300 SL. Three blank measurements per strain were typically included to account for background signal, for which the cells were first quenched before adding the radioactive label.

Compound	Potency in reducing maximal growth rate of A549 cells [1]	Ki ([2]; Dixon plot analysis, read-out: Ki (=K′i), 2-deoxyglucose uptake in A549 cells) [µM]	Type of inhibition of 2-deoxyglucose uptake in A549 cells [2]	Proliferation of MCF10A H-RAS^V12 cell line on 1 mM glucose [3]	Proliferation of U266 cell line [4]	Glucose consumption and lactate production in A549 cells [5]	Glucose consumption and lactate production in KMS-12-PE cells [6]	Weight loss of one single mouse sacrificed at day 19 ([7]; daily i.p. 20 mg/kg) [%]	Other abnormalities at autopsy ([7]; daily i.p. 5, 10, 20 mg/kg, 20 days)	Loss in body weight over 20 days [7]	AST/ALT ratio vs vehicle [7]	Blood glucose level vs vehicle [7]	Growth inhibition of A549 cells at the highest concentration ([1]; 50 μM)	Toxic effects in organs at autopsy, 20 mg/kg ([7]; daily i.p. 20 mg/kg, not observed at lower concentrations)	Minimal rescue concentration for growth of tps1Δ cells on 2.5 mM glucose (tps1Δ cells [8]) [µM]	IC50 (tps1Δ cells [9]) [µM]	Ki ([2]; Cornish-Bowden plot analysis, printed K′, read-out: K′i, 2-deoxyglucose uptake in A549 cells) [µM]	Induction of apoptosis (caspase 3/7 dye) in MCF10A H-RAS^V12 cells ([3]; 1 mM glucose)	Body weight drop at 10 and 5 mg/kg around day 5 and 11 ([7]; daily i.p. 10 and 5 mg/kg)	Toxic effects in organs at autopsy, 20 and 10 mg/kg ([7]; daily i.p. 20 and 10 mg/kg, not observed at lower concentrations)
Cc1nc(NCC(=O)NCc2ccco2)c2c(-c3ccccc3)csc2n1 [WBC-4C]	intermediate potency	26.8	noncompetitive	highest potency	inhibit proliferation	inhibited	inhibited	20	No other abnormalities	no significant loss in body weight; also recorded: No significant difference	No significant difference	No significant difference								
Cc1nc(NCC(=O)Nc2ccccc2Br)c2c(-c3cccs3)csc2n1 [WBC-15C]	least potent		competitive		inhibit proliferation	inhibited	inhibited			no significant loss in body weight; also recorded: No significant difference	No significant difference	No significant difference	failed to cause complete inhibition	toxic effects were seen in the liver and other organs						
Cc1nc(SCC(=O)c2ccc3c(c2)NC(=O)CO3)c2c(-c3cccs3)csc2n1 [WBC-11C]	most		uncompetitive	highest potency	inhibit proliferation	inhibited	inhibited			no significant loss in body weight; also recorded: No significant difference	No significant difference	No significant difference			50	44	7.53	strong induction of apoptosis	small transient drop	toxic effects were seen in the liver and other organs
